The test system of series [1] is peripheral blood mononuclear cells (PBMCs). In words: IFN-γ ELISPOT assay (ex vivo) with subject PBMCs. Format: cell-based, human. As to the method:
IFNγ ELISpot analysis (for protocol see A. Lalvani, R. Brookes, S. Hambleton, W. J. Britton, A. V. S. Hill, A. J. McMichael, J Exp Med 1997; 186 (6): 859-865) was performed ex vivo (without further in vitro culturing for expansion) using PBMCs depleted of CD4+ and enriched for CD8+ T cells (CD8+ effectors), or depleted of CD8+ and enriched for CD4+ T cells (CD4+ effectors). Tests were performed in duplicate and with a positive and negative control, Multiscreen filter plates (Merck Millipore) pre-coated with IFNγ-specific antibodies (ELISpotPro kit, Mabtech). 267.000 Cells were used per plate. Plates were scanned using an AID Classic Robot ELISPOT Reader and analyzed by AID ELISPOT 7.0 software (AID Autoimmun Diagnostika). Antigen Peptides (except negative and positive control group) were done in duplicates, spot counts were taken as mean values of each duplicate.
The immunogenicity of each of the six peptides was analyzed by IFN-γ secretion by subject peripheral blood mononuclear cells (PBMCs) using ELIspot assay. […]
The immunogenicity of each peptide was assessed in peripheral blood mononuclear cells (PBMCs) from patients and using the IFN-γ-ELISPOT assay. ELISPOT results were considered positive if the number of spots was at least 2-fold higher than the negative control (medium) and at least 50 spots were detected. […] We also tested the effect of delivery aiding peptides (DACP-1) and peptide extension by overlapping tandemization and tandemization on the immunogenicity of the epitopes.

The test system of series [2] is prostate cancer with bone metastases. Nature of the series: Case study Example 4: immunization of a subject with prostate cancer and bone metastases with PrCa-PC1/PrCa-PC2. To be noted: after 70 days. Format: in vivo, human. As to the method:
• Subject: A person • Date of Admission: Oct. 4, 2022 • Complaints: Urinary urgency, interrupted urination, nocturia, and erectile dysfunction
• PSA Level: 99.77 ng/mL (See FIG. 9A) • MRI Examination: Moderately enlarged prostate with extensive, organ-crossing, and infiltrating prostate cancer on the left side. • PSMA-PET Examination: Involvement of the middle gland and apex on the left periphery, infiltrating the left seminal vesicles. No PSMA positive lymph node metastases found, but sclerotic bone metastases reported (See FIG. 9B). • First Biopsies: Taken from bone metastases in the area of the lateral mass of the left sacrum. Pathological assessment confirmed malignant prostatic origin.
• Step (a): the pharmaceutical composition comprising the 12 synthetic HLA tumor antigen polypeptides and XS15 as adjuvant were synthesized as chemical peptides, • Step (b): the 12 HLA tumor antigen polypeptides were mixed in 25% DMSO/H2O application solution and divided multiple vial units of […] each, Dose per HLA tumor antigen polypeptide: 300 μg
• Step (a): the pharmaceutical composition comprising the 7 synthetic HLA tumor antigen polypeptides and XS15 as adjuvant were synthesized as chemical peptides, • Step (b): the 7 HLA tumor antigen polypeptides were mixed in 25% DMSO/H2O application solution and divided multiple vial units of 1 ml each, Dose per HLA tumor antigen polypeptide: 300 μg […]

Where [3] appears, read: Table 4, HTAPP-DACP related to group therapy.
Where [4] appears, read: Table 1, HTAPPs, response in ELISPOT experiments.
Where [5] appears, read: Table 2, HTAPP-DACP, response in ELISPOT experiments.
[6] abbreviates: Table 5, HTAPP-DACP related to group therapy.
[7] abbreviates: Table 6, further HTAPPs, HTAPP-DACPs and reference sequences.

Consider “42 (ICLTSTVQLIMQLMPFGCLLRQIKIWFQNRRMKWKK) [compound 42]”, for which the “Elispot [nspots/pM]” value in series [1] (setting [3]) is recorded as 20,8 nspots/pM. “14 (SPRQCSSWTLAAYKLAAFPTSL) [compound 14]”: the “Elispot [nspots/pM]” value in series [1] (setting [4]) was 137,5 nspots/pM. For “6 (NVGLSAVCTYNLSTAAAYCIHSINLHNFSNSVL) [compound 6]”, the “Elispot [nspots/pM]” value in series [1] (setting [4]) is reported as 330,5 nspots/pM.

For the molecule 5 (IKPRILGFDTPHYWLC) [compound 5], in series [1] (setting [4]), the “Elispot [nspots/pM]” value is given as 267,5 nspots/pM. As to “29 (HRCATITHLLAAYYLVLNFNKKRQIKIWFQNRRMKWKK) [compound 29]”, in series [1] (setting [5]), the “Elispot [nspots/pM]” value is 342,5 nspots/pM. As for “65 (TEYKLVVVGAAGVGKSALTIQRQIKIWFQNRRMKWKK) [compound 65]”, the “Elispot [nspots/pM]” value in series [1] (setting [6]) is 22,5 nspots/pM. On to `CC(O)(CS(=O)(=O)c1ccc(F)cc1)C(=O)Nc1ccc(C#N)c(C(F)(F)F)c1` (stereo not drawn) [Bicalutamide], for which the “tolerability (discontinuation)” value in series [2] is recorded as “side effects”.

For the molecule “24 (RERRVASWAMSFERLRQIKIWFQNRRMKWKK) [compound 24]”, the “Elispot [nspots/pM]” value in series [1] (setting [5]) was 436,0 nspots/pM. Turning to 3 (LQEFRRFQDPGRIVAIV) [compound 3], the “Elispot [nspots/pM]” value in series [1] (setting [4]) is listed as 246,0 nspots/pM. Regarding “81 (LTPKKLQCVDLHVISNDRQIKIWFQNRRMKWKK) [compound 81]”, the “Elispot [nspots/pM]” value in series [1] (setting [7]) is on record as 272,5 nspots/pM. In the case of “23 (MLFSNITPKAAYSPLTGGNMAFRQIKIWFQNRRMKWKK) [compound 23]”, the “Elispot [nspots/pM]” value in series [1] (setting [5]) is reported as 285,0 nspots/pM. Turning to “22 (IKPRILGFDTPHYWLCRQIKIWFQNRRMKWKK) [compound 22]”, in series [1] (setting [5]), the “Elispot [nspots/pM]” value is 477,0 nspots/pM. Turning to “49 (LLDILDTAGHEEYSAMRDQRQIKIWFQNRRMKWKK) [compound 49]”, in series [1] (setting [3]), the “Elispot [nspots/pM]” value is 161,7 nspots/pM.

Turning to “37 (GACRHGDRCSRLHNKPTFSRQIKIWFQNRRMKWKK) [compound 37]”, the “Elispot [nspots/pM]” value in series [1] (setting [3]) is 47,5 nspots/pM. Turning to “58 (NSSCMGGMNWRPILTIITLRQIKIWFQNRRMKWKK) [compound 58]”, the “Elispot [nspots/pM]” value in series [1] (setting [6]) is 228,3 nspots/pM. On the same count and under the same terms, the value for “57 (NSSCMGGMNQRPILTIITLRQIKIWFQNRRMKWKK) [compound 57]” was 102,5 nspots/pM; that for “61 (QHVKITDFGRAKLLGAEEKRQIKIWFQNRRMKWKK) [compound 61]” was 76,7 nspots/pM.

With 72 (MLFSNITPK) [compound 72], the “Elispot [nspots/pM]” value in series [1] (setting [7]) was 148,0 nspots/pM. Same read-out and setting: the same measure for “80 (NFMLNQNVMLSVKGITKNVHTRQIKIWFQNRRMKWKK) [compound 80]”: 232,5 nspots/pM. In the case of “31 (QSYPGSASLAAYSGMPRISKLRQIKIWFQNRRMKWK) [compound 31]”, in series [1] (setting [5]), the “Elispot [nspots/pM]” value is 415,0 nspots/pM. For the molecule “53 (MAQYLSTLLLLLATLAVALRQIKIWFQNRRMKWKK) [compound 53]”, in series [1] (setting [6]), the “Elispot [nspots/pM]” value was 190,8 nspots/pM. With “26 (IPDEYGNTALHYAIYNEDKLMRQIKIWFQNRRMKWKK) [compound 26]”, the “Elispot [nspots/pM]” value in series [1] (setting [5]) is 347,5 nspots/pM. Take “63 (SQHMTEVVRHCPHHERCSDRQIKIWFQNRRMKWKK) [compound 63]”: the “Elispot [nspots/pM]” value in series [1] (setting [6]) is 88,3 nspots/pM. For the molecule 77 (KKIRKPRTIYSSLQLQA) [compound 77], the “Elispot [nspots/pM]” value in series [1] (setting [7]) is listed as 148,0 nspots/pM. For “KKIRKPRTIYSSLQLQAAAYGIYDALFDIESKVDPSK [SEQ-ID-No.: 8]”, the “increase in Elispot count” value in series [1] (tandem peptide in relation to the more immunogenic single HTAP (SEQ-ID-No.: 77 / 78)) is listed as “more than 237%”. On to “47 (KLVVVGADGVGKSALTIQLIQNHRQIKIWFQNRRMKWKK) [compound 47]”, for which, in series [1] (setting [3]), the “Elispot [nspots/pM]” value is on record as 120,0 nspots/pM. In the case of “56 (MTEYKLVVVGASGVGKSALTIQLIQNHRQIKIWFQNRRMKWKK) [compound 56]”, the “Elispot [nspots/pM]” value in series [1] (setting [6]) is on record as 56,7 nspots/pM.

The values above are taken from US20250255945A1, “CLICK CHEMISTRY HLA POLYPEPTIDES” (IMMUNEO Therapeutics GmbH, priority 2024, published 2025).
